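96-well plates; 48 h exposure; 5 concentrations. Endpoints by linear interpolation between flanking doses. Not reached: highest tested concentration assigned. Here, GI50 denotes the concentration required for 50% inhibition of growth.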 Calls of active or inactive are those of the source. Rule as the data show it: active = GI50 up to about 1.1 µM and inactive = higher.
What was measured:
Assay in all cases: NCI tumour cell line growth inhibition, 48 h
[1] = test system: 786-0
[2] = test system: ACHN
[3] = test system: HCC 2998
[4] = test system: HL-60
[5] = test system: Hs-578T
[6] = test system: IGROV-1
[7] = test system: KM12
[8] = test system: MDA-MB-231
[9] = test system: MDA-MB-435
[10] = test system: Malme-3M
[11] = test system: NCI-H226
[12] = test system: NCI-H23
[13] = test system: OVCAR-5
[14] = test system: PC-3
[15] = test system: RPMI-8226
[16] = test system: RXF 393
[17] = test system: SNB-19
[18] = test system: U-251
[19] = test system: A498
[20] = test system: SF-539

Row | Structure (SMILES) | GI50 [1] | GI50 [2] | GI50 [3] | GI50 [4] | GI50 [5] | GI50 [6] | GI50 [7] | GI50 [8] | GI50 [9] | GI50 [10] | GI50 [11] | GI50 [12] | GI50 [13] | GI50 [14] | GI50 [15] | GI50 [16] | GI50 [17] | GI50 [18] | GI50 [19] | GI50 [20]
1 | Cc1ccc2c(O)cc(-c3cc4ccccc4s3)nc2n1 | > 75.5 µM (inactive) | 47.6 µM (inactive) | > 100 µM (inactive) | > 100 µM (inactive) | > 41.6 µM (inactive) | 6.65 µM (inactive) | > 73.1 µM (inactive) | > 100 µM (inactive) | > 88.1 µM (inactive) | > 48.1 µM (inactive) | 14.2 µM (inactive) | > 56.2 µM (inactive) | > 100 µM (inactive) | > 100 µM (inactive) | 4.33 µM (inactive) | 33.7 µM (inactive) | > 100 µM (inactive) | > 100 µM (inactive) | – | –
2 | O=c1c2cccnc2[s+]([O-])n1Cc1ccccc1 (stereo not given) | > 100 µM (inactive) | > 100 µM (inactive) | > 100 µM (inactive) | > 10 µM (inactive) | > 100 µM (inactive) | > 100 µM (inactive) | > 100 µM (inactive) | > 100 µM (inactive) | > 100 µM (inactive) | > 100 µM (inactive) | > 100 µM (inactive) | > 100 µM (inactive) | > 100 µM (inactive) | – | > 100 µM (inactive) | > 100 µM (inactive) | > 100 µM (inactive) | > 100 µM (inactive) | > 100 µM (inactive) | > 100 µM (inactive)
3 | CCn1c(O)c(C(=O)NC(C)c2ccc([N+](=O)[O-])cc2)c(=O)n(CC)c1=S (stereo not given) | 3.27 µM (inactive) | 3.1 µM (inactive) | 3.29 µM (inactive) | 2.28 µM (inactive) | 2.52 µM (inactive) | 2.75 µM (inactive) | 2.01 µM (inactive) | 2.91 µM (inactive) | 3.62 µM (inactive) | – | 2.75 µM (inactive) | 1.77 µM (inactive) | 2.23 µM (inactive) | 0.773 µM (active) | 1.43 µM (inactive) | 3.11 µM (inactive) | 1.93 µM (inactive) | 1.84 µM (inactive) | – | 3.93 µM (inactive)
4 | CCOC(=O)C1=C(C)OC2(O)C=CC(O)=C3C(=O)N(c4ccccc4)C(=O)C312 (stereo not given) | 40.5 µM (inactive) | 31.8 µM (inactive) | 37.3 µM (inactive) | 29.4 µM (inactive) | 32.9 µM (inactive) | 29 µM (inactive) | 38.6 µM (inactive) | 37.8 µM (inactive) | 37.8 µM (inactive) | 20 µM (inactive) | 34.2 µM (inactive) | 40.8 µM (inactive) | 58.5 µM (inactive) | 35.3 µM (inactive) | 14.9 µM (inactive) | 26.4 µM (inactive) | 22.8 µM (inactive) | 35.7 µM (inactive) | – | 29.1 µM (inactive)
5 | Nn1c(CCCCCCCCc2nnc(-c3c(O)ccc4ccccc34)n2N)nnc1-c1c(O)ccc2ccccc12 | > 100 µM (inactive) | > 100 µM (inactive) | > 100 µM (inactive) | > 100 µM (inactive) | > 100 µM (inactive) | > 100 µM (inactive) | > 100 µM (inactive) | > 100 µM (inactive) | > 100 µM (inactive) | > 100 µM (inactive) | > 100 µM (inactive) | > 100 µM (inactive) | > 100 µM (inactive) | > 100 µM (inactive) | > 100 µM (inactive) | – | > 100 µM (inactive) | > 100 µM (inactive) | – | > 100 µM (inactive)
6 | N#Cc1nc(C(O)c2ccccc2)oc1N (stereo not given) | > 100 µM (inactive) | > 100 µM (inactive) | – | > 100 µM (inactive) | > 100 µM (inactive) | > 100 µM (inactive) | > 100 µM (inactive) | > 100 µM (inactive) | – | > 100 µM (inactive) | > 100 µM (inactive) | > 100 µM (inactive) | > 100 µM (inactive) | > 100 µM (inactive) | > 100 µM (inactive) | 17.9 µM (inactive) | > 100 µM (inactive) | > 100 µM (inactive) | > 100 µM (inactive) | > 100 µM (inactive)
7 | S=C(NN=C1NCCCN1)Nc1ccccc1 | > 100 µM (inactive) | > 100 µM (inactive) | > 100 µM (inactive) | 52.8 µM (inactive) | > 100 µM (inactive) | > 100 µM (inactive) | > 100 µM (inactive) | – | > 100 µM (inactive) | > 100 µM (inactive) | > 100 µM (inactive) | > 100 µM (inactive) | > 100 µM (inactive) | > 100 µM (inactive) | 28.2 µM (inactive) | > 100 µM (inactive) | > 100 µM (inactive) | > 100 µM (inactive) | > 100 µM (inactive) | > 100 µM (inactive)
8 | CCCCNc1nc(N)nc(Nc2ccc(Br)cc2)c1N=O | 17.5 µM (inactive) | 60.3 µM (inactive) | 87.7 µM (inactive) | 17.9 µM (inactive) | 27.5 µM (inactive) | > 100 µM (inactive) | > 100 µM (inactive) | 41.8 µM (inactive) | > 100 µM (inactive) | > 100 µM (inactive) | > 100 µM (inactive) | > 100 µM (inactive) | 77.4 µM (inactive) | 67.5 µM (inactive) | 52 µM (inactive) | 32.7 µM (inactive) | > 100 µM (inactive) | 31.1 µM (inactive) | – | 80.2 µM (inactive)
9 | O=C1C(=Cc2ccccc2[N+](=O)[O-])N=C(c2ccccc2)N1n1c(-c2ccccc2)nc2ccccc2c1=O | 38 µM (inactive) | 30.8 µM (inactive) | 35.8 µM (inactive) | > 10 µM (inactive) | 20.6 µM (inactive) | 32.2 µM (inactive) | 26.9 µM (inactive) | 27.6 µM (inactive) | 32.4 µM (inactive) | 25.1 µM (inactive) | 32.5 µM (inactive) | 20.2 µM (inactive) | 71.3 µM (inactive) | 27.3 µM (inactive) | 20.5 µM (inactive) | 16.1 µM (inactive) | 35.3 µM (inactive) | 30 µM (inactive) | – | 25.8 µM (inactive)
10 | CC1(C)C2CCC1C(=O)[C@@]1(C=CC(=O)CC1)C2 (stereo not given in full) | > 100 µM (inactive) | > 100 µM (inactive) | > 100 µM (inactive) | > 100 µM (inactive) | > 100 µM (inactive) | > 100 µM (inactive) | > 100 µM (inactive) | > 100 µM (inactive) | > 100 µM (inactive) | > 100 µM (inactive) | > 100 µM (inactive) | > 100 µM (inactive) | > 100 µM (inactive) | > 100 µM (inactive) | > 100 µM (inactive) | > 100 µM (inactive) | > 100 µM (inactive) | > 100 µM (inactive) | – | > 100 µM (inactive)
11 | Cc1nn(C(=O)c2ccc(Cl)cc2)c2c1C(c1ccccc1O)SC(=N)N2 (stereo not given) | > 10 µM (inactive) | > 10 µM (inactive) | > 10 µM (inactive) | > 10 µM (inactive) | > 10 µM (inactive) | > 10 µM (inactive) | > 10 µM (inactive) | > 10 µM (inactive) | > 10 µM (inactive) | > 10 µM (inactive) | > 10 µM (inactive) | > 10 µM (inactive) | > 10 µM (inactive) | > 10 µM (inactive) | > 10 µM (inactive) | > 10 µM (inactive) | > 10 µM (inactive) | > 10 µM (inactive) | – | > 10 µM (inactive)
12 | Cc1nn(C(=O)c2ccncc2)c2c1C(c1cccc([N+](=O)[O-])c1)SC(=N)N2 (stereo not given) | > 10 µM (inactive) | > 10 µM (inactive) | > 10 µM (inactive) | > 10 µM (inactive) | > 10 µM (inactive) | > 10 µM (inactive) | > 10 µM (inactive) | > 10 µM (inactive) | > 10 µM (inactive) | > 10 µM (inactive) | > 10 µM (inactive) | > 10 µM (inactive) | > 10 µM (inactive) | > 10 µM (inactive) | > 10 µM (inactive) | > 10 µM (inactive) | > 10 µM (inactive) | > 10 µM (inactive) | – | > 10 µM (inactive)
13 | Cn1c(-c2ccccc2)cc(-c2ccc3c(c2)OCO3)c1-c1cccs1 | > 100 µM (inactive) | > 100 µM (inactive) | > 100 µM (inactive) | > 100 µM (inactive) | > 100 µM (inactive) | > 100 µM (inactive) | > 100 µM (inactive) | – | > 100 µM (inactive) | – | > 100 µM (inactive) | 64.7 µM (inactive) | > 100 µM (inactive) | > 100 µM (inactive) | > 100 µM (inactive) | > 100 µM (inactive) | > 100 µM (inactive) | > 100 µM (inactive) | > 100 µM (inactive) | > 100 µM (inactive)
14 | O=c1oc2ccccc2c(Nc2ccc3c(c2)Sc2ccccc2O3)c1[N+](=O)[O-] | 22.7 µM (inactive) | 19.6 µM (inactive) | 20.4 µM (inactive) | 29.7 µM (inactive) | 30.9 µM (inactive) | 26.2 µM (inactive) | 24.7 µM (inactive) | 21 µM (inactive) | 29.2 µM (inactive) | 21.2 µM (inactive) | 23.2 µM (inactive) | 25.9 µM (inactive) | 34.6 µM (inactive) | 19.4 µM (inactive) | 13.7 µM (inactive) | 23.4 µM (inactive) | 27 µM (inactive) | 18.5 µM (inactive) | – | 26.3 µM (inactive)
15 | NCC1Nc2ccccc2[C@@H](O)C1O (stereo not given in full) | > 100 µM (inactive) | > 100 µM (inactive) | > 100 µM (inactive) | > 100 µM (inactive) | > 100 µM (inactive) | > 100 µM (inactive) | > 100 µM (inactive) | > 100 µM (inactive) | > 100 µM (inactive) | > 100 µM (inactive) | > 100 µM (inactive) | > 100 µM (inactive) | > 100 µM (inactive) | > 100 µM (inactive) | > 100 µM (inactive) | > 100 µM (inactive) | > 100 µM (inactive) | > 100 µM (inactive) | – | > 100 µM (inactive)
